# Assay results from paper doi:10.1101/2025.06.05.658205v3, “AsCas12a Exhibits Intrinsic, DNA-Independent ATPase Activity” (biorxiv, 2025).
# Molecular target: T1, AsCas12a (Acidaminococcus sp. BV3L6, UniProt U2UMQ6)
# T1 construct: gene cas12a; purified wild-type protein, no crRNA mentioned in assay
# Experiment: radiometric TLC ATPase assay ([…] release)
# Type: biochemical
# Settings: 200 µM cold ATP, 200 pM [γ-32P]ATP; 12 mM MgCl2, pH 7.5, 37 °C, 1 h; no DNA; labelled compound
# T1 sequence (U2UMQ6 whole entry, looked up): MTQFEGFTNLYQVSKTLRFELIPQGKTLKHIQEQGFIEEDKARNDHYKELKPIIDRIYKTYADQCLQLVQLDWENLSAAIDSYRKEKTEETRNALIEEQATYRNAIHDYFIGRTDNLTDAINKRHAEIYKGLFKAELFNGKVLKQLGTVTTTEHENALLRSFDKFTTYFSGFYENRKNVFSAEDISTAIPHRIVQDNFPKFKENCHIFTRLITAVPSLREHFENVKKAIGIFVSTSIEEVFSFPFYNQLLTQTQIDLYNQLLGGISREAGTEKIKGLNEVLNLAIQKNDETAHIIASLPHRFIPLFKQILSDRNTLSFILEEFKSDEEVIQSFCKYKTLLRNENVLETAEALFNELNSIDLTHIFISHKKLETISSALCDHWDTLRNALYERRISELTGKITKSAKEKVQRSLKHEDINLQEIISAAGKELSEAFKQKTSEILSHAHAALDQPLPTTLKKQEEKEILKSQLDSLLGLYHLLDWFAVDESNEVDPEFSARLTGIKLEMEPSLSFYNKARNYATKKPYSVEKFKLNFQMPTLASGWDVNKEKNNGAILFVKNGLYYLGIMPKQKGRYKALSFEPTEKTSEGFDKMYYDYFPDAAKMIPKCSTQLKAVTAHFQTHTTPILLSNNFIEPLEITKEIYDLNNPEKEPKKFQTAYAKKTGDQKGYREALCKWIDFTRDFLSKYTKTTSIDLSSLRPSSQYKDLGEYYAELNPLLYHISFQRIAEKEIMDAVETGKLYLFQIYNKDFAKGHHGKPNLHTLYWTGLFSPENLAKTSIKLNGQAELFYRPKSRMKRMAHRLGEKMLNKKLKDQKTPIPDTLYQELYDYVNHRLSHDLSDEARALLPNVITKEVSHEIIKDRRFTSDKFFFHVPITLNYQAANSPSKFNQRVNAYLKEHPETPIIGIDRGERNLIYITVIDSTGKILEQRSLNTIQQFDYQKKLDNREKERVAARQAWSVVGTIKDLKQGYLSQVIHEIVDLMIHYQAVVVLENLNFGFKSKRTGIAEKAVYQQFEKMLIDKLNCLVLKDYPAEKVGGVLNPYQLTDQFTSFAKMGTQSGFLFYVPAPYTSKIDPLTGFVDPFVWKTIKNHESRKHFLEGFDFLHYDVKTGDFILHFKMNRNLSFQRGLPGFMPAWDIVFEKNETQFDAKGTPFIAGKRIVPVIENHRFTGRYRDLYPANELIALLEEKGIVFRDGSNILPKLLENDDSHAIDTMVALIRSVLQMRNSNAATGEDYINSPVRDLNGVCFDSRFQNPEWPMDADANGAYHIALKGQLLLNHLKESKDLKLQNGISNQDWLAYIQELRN
structure (smiles),measurement,value
Nc1ncnc2c1ncn2[C@@H]1O[C@H](COP(=O)(O)OP(=O)(O)OP(=O)(O)O)[C@@H](O)[C@H]1O [ATP],radiometric TLC ATPase assay (32Pi release),AsCas12a catalyzed ATP hydrolysis in a concentration and time-dependent manner
